Reference: patent publication US7183295B2, “PPAR-activating compound and pharmaceutical composition comprising the compound” (Kowa Co., Ltd., priority 2003, dated 2007)

Columns and labels:
Type in all cases: cell-based
[1] = target: T1, human PPARα (166–467aa) ligand binding domain (Homo sapiens, UniProt Q07869); assay: PPAR transfection (Gal4-LBD luciferase reporter) assay, hPPARα; settings: for EC50: 16 hours, luciferase activity, read-out: hPPAR, EC50 α (agonist activity)
T1 construct: human PPARα (166–467aa); expressed in transfected cells; host or cells: COS-7
T1 sequence (Q07869 166-467): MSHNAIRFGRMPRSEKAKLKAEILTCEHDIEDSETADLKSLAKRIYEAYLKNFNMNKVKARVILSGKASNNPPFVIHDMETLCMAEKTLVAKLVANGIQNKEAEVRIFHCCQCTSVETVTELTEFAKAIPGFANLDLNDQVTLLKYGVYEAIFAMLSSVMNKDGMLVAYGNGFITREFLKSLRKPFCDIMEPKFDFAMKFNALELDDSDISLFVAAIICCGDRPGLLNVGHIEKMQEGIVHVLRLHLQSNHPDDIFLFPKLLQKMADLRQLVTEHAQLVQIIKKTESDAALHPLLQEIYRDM
Description: (§1) COS-7 cells, which is African green monkey kidney cell line, were used for all transfection assays. Cells were cultured in DMEM medium supplemented with 10% fetal bovine serum, glutamic acid, and an antibiotic under humidified 5% CO2 atmosphere.
(§2) Cells were transfected by lipofectamine reagent with a mixture containing expression plasmid, firefly luciferase reporter plasmid. And a β-galactosidase expression plasmid used as an internal control for transfection efficiency.
(§3) Transiently transfected cells were incubated with DMEM with 0.2% FCS with or without compound. And after 16 hours, luciferase activity and β-galactosidase activity of cell lysate were measured.
(§4) Each compound was dissolved in and diluted with dimethyl sulfoxide (DMSO), and the DMSO concentration of the DMEM medium (containing 0.2% serum) was adjusted to 0.1% upon treatment of cells.

[2] = target: T2, human PPARγ (182–505aa) ligand binding domain (Homo sapiens, UniProt P37231); assay: PPAR transfection (Gal4-LBD luciferase reporter) assay, hPPARγ; settings: for activation factor, hPPARγ (FIGS. 1 to 5): at 10-fold concentration of EC50 value in activation of hPPARα, ratio to DMSO control; for EC50: 16 hours, luciferase activity, read-out: hPPAR, EC50 γ (agonist activity)
T2 construct: γ(182–505aa); expressed in transfected cells; host or cells: COS-7
T2 sequence (P37231 182-505): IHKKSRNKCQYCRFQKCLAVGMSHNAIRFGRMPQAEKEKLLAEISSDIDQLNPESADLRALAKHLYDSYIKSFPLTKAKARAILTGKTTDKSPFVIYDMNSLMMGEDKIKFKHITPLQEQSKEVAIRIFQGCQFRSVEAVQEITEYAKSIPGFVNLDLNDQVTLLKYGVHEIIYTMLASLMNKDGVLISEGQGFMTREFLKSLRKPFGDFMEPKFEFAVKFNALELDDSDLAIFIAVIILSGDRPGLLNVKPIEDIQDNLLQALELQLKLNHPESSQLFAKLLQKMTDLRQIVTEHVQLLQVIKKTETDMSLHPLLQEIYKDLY
Description: as §1, §2, §3, §4

[3] = target: T3, human PPARδ (137–441aa) ligand binding domain (Homo sapiens, UniProt Q03181); assay: PPAR transfection (Gal4-LBD luciferase reporter) assay, hPPARδ; settings: for activation factor, hPPARδ (FIGS. 1 to 5): at 10-fold concentration of EC50 value in activation of hPPARα, ratio to DMSO control; for EC50: 16 hours, luciferase activity, read-out: hPPAR, EC50 δ (agonist activity)
T3 construct: δ (137–441aa); expressed in transfected cells; host or cells: COS-7
T3 sequence (Q03181 137-441): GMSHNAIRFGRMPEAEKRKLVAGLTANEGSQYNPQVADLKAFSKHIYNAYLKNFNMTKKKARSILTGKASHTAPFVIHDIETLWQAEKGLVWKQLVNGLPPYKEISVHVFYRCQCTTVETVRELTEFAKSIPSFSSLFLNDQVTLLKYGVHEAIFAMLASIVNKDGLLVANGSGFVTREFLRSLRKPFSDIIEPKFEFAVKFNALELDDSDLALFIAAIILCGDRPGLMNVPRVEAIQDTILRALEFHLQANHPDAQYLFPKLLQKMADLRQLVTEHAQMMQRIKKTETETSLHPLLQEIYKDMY
Description: as §1, §2, §3, §4

| Structure (SMILES) | EC50 ([1]; transfected COS-7 cells) [nM] | activation factor, hPPARγ (FIGS. 1 to 5) [2] | EC50 ([2]; transfected COS-7 cells) [nM] | activation factor, hPPARδ (FIGS. 1 to 5) [3] | EC50 ([3]; transfected COS-7 cells) [nM] | activation factor, hPPARα (FIGS. 1 to 5) ([1]; at EC50 value in activation of hPPARα and at 10 times that concentration, ratio to DMSO control) | activation of hPPARα isoform ([1]; transfected COS-7 cells) | activation of hPPARγ isoform ([2]; transfected COS-7 cells) | activation of hPPARδ isoform ([3]; transfected COS-7 cells) |
| --- | --- | --- | --- | --- | --- | --- | --- | --- | --- |
| CC(C)(Oc1ccc(CCCN(CCc2ccccc2)c2nc3ccccc3s2)cc1)C(=O)O [Compound A] | 100 | strongly activate | 200 | strongly activate | 400 |  |  |  |  |
| CC(C)(Oc1ccc(CCCN(CCc2ccccc2)C(=O)c2nc3ccccc3s2)cc1)C(=O)O [Compound B, reference compound] | 120 | strongly activate | 700 | strongly activate | 900 |  |  |  |  |
| CC(C)(Oc1ccc(CCCN(CCc2ccccc2)c2nc3ccccc3[nH]2)cc1)C(=O)O [Compound C, reference compound] |  | activated no hPPAR isoform |  | activated no hPPAR isoform |  | activated no hPPAR isoform | no activation | no activation | no activation |
| CCC(Oc1cccc(CN(CCCOc2ccc(F)cc2)c2nc3ccccc3o2)c1)C(=O)O (stereo not drawn) [Example 1, 2-[3-[[N-(Benzoxazol-2-yl)-N-3-(4-fluorophenoxy)propyl]aminomethyl]phenoxy]butyric acid] | 10 | substantially no activation | > 100000 | substantially no activation | 1600 |  |  |  |  |
| CCC(Oc1cccc(CN(CCOc2ccc(Cl)cc2)c2nc3ccccc3o2)c1)C(=O)O (stereo not drawn) [Example 2, 2-[3-[[N-(Benzoxazol-2-yl)-N-2-(4-chlorophenoxy)ethyl]aminomethyl]phenoxy]butyric acid] | 10 | substantially no activation | 7300 | substantially no activation | 2500 |  |  |  |  |
| CCC(Oc1cccc(CN(CCOc2ccc(F)cc2)c2nc3ccccc3o2)c1)C(=O)O (stereo not drawn) [Example 3, 2-[3-[[N-(Benzoxazol-2-yl)-N-2-(4-fluorophenoxy)ethyl]aminomethyl]phenoxy]butyric acid] | 10 |  | > 100000 |  | 1800 |  |  |  |  |
| CC(C)(Oc1cccc(CN(CCOc2ccc(Cl)cc2)c2nc3ccccc3o2)c1)C(=O)O [Example 6, 2-[3-[[N-(Benzoxazol-2-yl)-N-2-(4-chlorophenoxy)ethyl]aminomethyl]phenoxy]-2-methylpropionic acid] | 70 |  | 3500 |  | > 100000 |  |  |  |  |
| CC(Oc1cccc(CN(CCCOc2ccccc2)c2nc3ccccc3o2)c1)C(=O)O (stereo not drawn) [Example 9, 2-[3-[[N-(Benzoxazol-2-yl)-N-3-phenoxypropyl]aminomethyl]phenoxy]propionic acid] | 10 |  | 1200 |  | 2400 |  |  |  |  |
| O=C(O)COc1cccc(CN(CCCOc2ccccc2)c2nc3ccccc3o2)c1 [Example 12, 3-[[N-(Benzoxazol-2-yl)-N-3-phenoxypropyl]aminomethyl]phenoxyacetic acid] | 1200 |  | > 100000 |  | > 100000 |  |  |  |  |
| CCC(Oc1cccc(CN(CCCOc2ccccc2)c2nc3ccccc3o2)c1)C(=O)O (stereo not drawn) [Example 13, 2-[3-[[N-(Benzoxazol-2-yl)-N-3-phenoxypropyl]aminomethyl]phenoxy]butyric acid] | 10 |  | > 50000 |  | 2000 |  |  |  |  |
| CCC(Oc1cccc(CN(CCCOc2ccc(OC)cc2)c2nc3ccccc3o2)c1)C(=O)O (stereo not drawn) [Example 14, 2-[3-[[N-(Benzoxazol-2-yl)-N-3-(4-methoxyphenoxy)propyl]aminomethyl]phenoxy]butyric acid] |  |  | > 100000 |  | 1700 |  |  |  |  |
| CC[C@@H](Oc1cccc(CN(CCCOc2ccc(OC)cc2)c2nc3ccccc3o2)c1)C(=O)O [Example 85, (R)-2-[[3-[N-(Benzoxazol-2-yl)-N-3-(4-methoxyphenoxy)propyl]aminomethyl]phenoxy]butyric acid] |  |  | 1100 |  | 1600 |  |  |  |  |
